Each structure is given as a SMILES string.

A word on the Ki: it is the equilibrium dissociation constant of an inhibitor or competing ligand from its target.

The target of this assay is T1, Wee1 kinase (Homo sapiens, UniProt P30291).
T1 construct: purchased Carnabio 05-177
T1 sequence (P30291 whole entry): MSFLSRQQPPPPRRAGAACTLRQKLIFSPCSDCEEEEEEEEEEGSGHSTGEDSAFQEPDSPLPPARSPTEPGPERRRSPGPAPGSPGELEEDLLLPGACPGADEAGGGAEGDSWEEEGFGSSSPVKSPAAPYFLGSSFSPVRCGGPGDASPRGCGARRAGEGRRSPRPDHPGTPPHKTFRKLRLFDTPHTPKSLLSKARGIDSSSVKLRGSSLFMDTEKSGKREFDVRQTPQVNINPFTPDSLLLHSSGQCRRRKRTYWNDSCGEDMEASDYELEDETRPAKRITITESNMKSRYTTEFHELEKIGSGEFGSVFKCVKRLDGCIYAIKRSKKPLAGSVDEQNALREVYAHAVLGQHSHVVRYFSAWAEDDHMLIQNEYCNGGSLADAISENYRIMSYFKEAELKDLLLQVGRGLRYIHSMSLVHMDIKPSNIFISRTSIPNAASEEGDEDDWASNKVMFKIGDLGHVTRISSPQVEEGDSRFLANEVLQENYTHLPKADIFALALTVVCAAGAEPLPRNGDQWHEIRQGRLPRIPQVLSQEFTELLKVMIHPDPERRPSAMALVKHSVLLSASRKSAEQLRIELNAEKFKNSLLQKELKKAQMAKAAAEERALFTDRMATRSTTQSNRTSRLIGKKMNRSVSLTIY
Description: Wee1 time-resolved fluorescence equilibrium binding assay (probe displacement). The following applies: GST-tagged-Wee1 kinase 2 nM, fluorescent probe 300 nM, 1 hour incubation; read-out: Wee-1 binding (Ki nM). As to the method:
Wee1 kinase was assayed using a time-resolved fluorescence equilibrium binding assay monitoring displacement of a rapidly reversible Oregon Green-labeled ATP-competitive kinase probe (N-(2-(2-(2-(4-(4-(5-chloro-4-(2-(1-hydroxycyclobutyl)thiazol-5-yl)-1H-pyrrolo[2,3-b]pyridin-2-yl)phenyl)piperazin-1-yl)ethoxy)ethoxy)ethyl)-2′,7′-difluoro-3′,6′-dihydroxy-3-oxo-3H-spiro[isobenzofuran-1,9′-xanthene]-5-carboxamide) by competitive Wee1 inhibitors.
For the compound `CN(C)C1CCN(C2Cc3ccc(Nc4ncc5c(=O)c(-c6c(Cl)cccc6Cl)cn(C)c5n4)cc3C2)CC1` (centres unmarked) [Example 72, 6-(2,6-dichlorophenyl)-2-({2-[4-(dimethylamino)piperidin-1-yl]-2,3-dihydro-1H-inden-5-yl}amino)-8-methylpyrido[2,3-d]pyrimidin-5(8H)-one], the Ki was found to be 0.5 nM.
With `Cn1cc(-c2c(F)cccc2Cl)c(=O)c2cnc(Nc3ccc(NC4CCNCC4)cc3)nc21` [Example 73, 6-(2-chloro-6-fluorophenyl)-8-methyl-2-{[4-(piperidin-4-ylamino)phenyl]amino}pyrido[2,3-d]pyrimidin-5(8H)-one], the inhibitory constant (Ki) amounted to 2.8 nM.
`Cn1cc(-c2c(F)cccc2Cl)c(=O)c2cnc(Nc3ccc4c(c3)CNCC4)nc21` [Example 74, 6-(2-chloro-6-fluorophenyl)-8-methyl-2-(1,2,3,4-tetrahydroisoquinolin-7-ylamino)pyrido[2,3-d]pyrimidin-5(8H)-one]: the Ki is 1.2 nM.
With `Cn1cc(-c2c(F)cccc2Cl)c(=O)c2cnc(Nc3ccc4c(c3)CCNC4)nc21` [Example 75, 6-(2-chloro-6-fluorophenyl)-8-methyl-2-(1,2,3,4-tetrahydroisoquinolin-6-ylamino)pyrido[2,3-d]pyrimidin-5(8H)-one], the Ki is 1.3 nM.
Consider `Cn1cc(-c2c(Cl)cccc2Cl)c(=O)c2cnc(Nc3ccc(N[C@H]4CC[C@H](N(C)C)CC4)cc3)nc21` [Example 76, 6-(2,6-dichlorophenyl)-2-[(4-{[trans-4-(dimethylamino)cyclohexyl]amino}phenyl)amino]-8-methylpyrido[2,3-d]pyrimidin-5(8H)-one], for which the Ki was 0.7 nM.
Take `Cn1cc(-c2c(Cl)cccc2Cl)c(=O)c2cnc(Nc3ccc(N[C@H]4CC[C@@H](N(C)C)CC4)cc3)nc21` [Example 77, 6-(2,6-dichlorophenyl)-2-[(4-{[cis-4-(dimethylamino)cyclohexyl]amino}phenyl)amino]-8-methylpyrido[2,3-d]pyrimidin-5(8H)-one]: the Ki worked out at 0.5 nM.
On to `CN(C)CCCN1CCN(c2ccc(Nc3ncc4c(=O)c(-c5c(Cl)cccc5Cl)cn(C)c4n3)cc2)CC1` [Example 78, 6-(2,6-dichlorophenyl)-2-[(4-{4-[3-(dimethylamino)propyl]piperazin-1-yl}phenyl)amino]-8-methylpyrido[2,3-d]pyrimidin-5(8H)-one], for which the Ki amounted to 1.2 nM.
For `CN(C)CCN1CCN(c2ccc(Nc3ncc4c(=O)c(-c5c(Cl)cccc5Cl)cn(C)c4n3)cc2)CC1` [Example 79, 6-(2,6-dichlorophenyl)-2-[(4-{4-[2-(dimethylamino)ethyl]piperazin-1-yl}phenyl)amino]-8-methylpyrido[2,3-d]pyrimidin-5(8H)-one], the Ki was found to be 0.8 nM.

These data come from patent US9181239B2, “Pyridopyrimidinone inhibitors of kinases” (AbbVie Inc., priority 2011, dated 2015).
